We go through three substances from paper PMC8273887 (Journal of Medicinal Chemistry, 2021).

Data set [1] in a line: Stability in simulated intestinal fluid (SIF). The class given is in vitro ADME. The settings on record: pig, simulated intestinal fluid (SIF) with porcine pancreatin, pH 6.8, 15 μL of 1 mM peptide stock in 285 μL SIF, 37 °C, samples 0 min-24 h quenched with 5% aqueous TFA, RP-HPLC/LC-MS peak area as % of time 0, exponential one-phase decay fit, read-out: t1/2 in SIF. Here is the method:
(§1) We exposed TFF3(C^57Acm) and TFF3 homodimer to simulated gastric fluid (SGF, containing pepsin, pH 1.3) and simulated intestinal fluid (SIF, containing pancreatic enzymes, pH 6.8), and monitored the mixture over 24 h by analytical RP-HPLC and MS. The N- and C-termini of TFF3 and its homodimer were readily truncated in both SGF and SIF (Figure 4A,B). In SGF, TFF3 was cleaved at Leu^6/Ser^7 followed by cleavage at Glu^54/Ala^55 (t1/2 < 5 min). In SIF, TFF3 was cleaved first at Thr^58/Phe^59 followed by cleavage at Leu^6/Ser^7, Glu^56/Cys^57, and Ala^55/Glu^56 (t1/2 < 5 min). TFF3 homodimer, in both SGF (t1/2 ∼ 40 min) and SIF (t1/2 < 5 min), was first broken down to monomeric TFF3 through simultaneous cleavage at Leu^6 and Glu^54 or Ala^55, eventually leading to the same metabolites as TFF3 (Figure 4B).
(§2) Simulated gastric fluid (SGF) was prepared by dissolving 20 mg of NaCl and 8 mg of pepsin in 70 μL of concentrated HCl (32%), and the volume was diluted to 10 mL with Milli-Q water (pH 1.3).[76],[77] Simulated intestinal fluid (SIF) was prepared by dissolving 68 mg of KH2PO4 in 500 μL of Milli-Q water followed by the addition of 800 μL of 0.2 M NaOH and 100 mg of porcine pancreatin, and the volume was adjusted to 10 mL with Milli-Q water (pH 6.8).[76],[77] Peptide stock solution (1 mM; 15 μL) was added to SGF (285 μL) or SIF (285 μL) and incubated at 37 °C. Samples (30 μL) from SGF and SIF were taken at 0, 5, 15, and 30 min and 1, 2, 4, 8, and 24 h timepoints and subsequently quenched with 30 μL of 0.2 M Na2CO3 (SGF) or 30 μL of 5% aqueous TFA (SIF). The samples were analyzed by analytical RP-HPLC (30 μL) and/or LC-MS (20 μL). The amount of peptide remaining was determined by measuring the peak area and expressing it as a % of the peak area at time 0. Peptide half-life (t1/2) was determined from the peptide degradation profiles using an exponential one-phase decay fit in Prism (version 7, GraphPad, La Jolla). LC-MS analysis was performed in a Q-Star Pulsar mass spectrometer (SCIEX, Ontario, Canada), and the raw data spectra were processed using the peptide reconstruction tool in the BioAnalyst software to identify the mass of the metabolites. The stability of the disulfide bonds was assessed through incubation of the peptides (10 μM) with 10 equiv of reduced glutathione (GSH; 100 μM) in sodium phosphate (50 mM) buffer at pH 7.2. Samples were taken at timepoints 0, 4, 8, and 24 h, quenched by adding 10% TFA, and analyzed by analytical RP-HPLC using an analytical C3 column (Agilent Zorbax SB-C3, 5 μm, 2.1 mm × 250 mm, 300 Å).

Data set [2] in a line: Stability in simulated gastric fluid (SGF). The class given is in vitro ADME, porcine. The settings on record: SGF with pepsin, pH 1.3, 37 °C, 24 h; RP-HPLC and MS. Here is the method: as §1, §2
The test system of data set [3] is trypsin. The settings on record: incubated with trypsin; fragments identified. An excerpt: We then synthesized the trefoil domain (TFF3_10-50, single-chain assembly via Fmoc-SPPS) to investigate its gut stability. We acetylated the N-terminus (Gln^10) of the trefoil domain to prevent the formation of pyroglutamic acid.
Data set [4] deals with porcine pancreatin. Put plainly: simulated intestinal fluid (SIF, containing pancreatic enzymes, pH 6.8). The settings on record: 37 °C, up to 24 h.
Data set [5] concerns pepsin. Put plainly: simulated gastric fluid (SGF, containing pepsin, pH 1.3). The settings on record: porcine, 37 °C, up to 24 h.
Data set [6] in a line: human saliva. The settings on record: cited from earlier work.
The target of data set [7] is T1, CXCR4 (Homo sapiens, UniProt P61073).
T1 construct: expressed in transfected cells; host or cells: COS-7 (African green monkey), transient co-transfection with GαΔ6qi4myr
As to the kind of experiment: Inositol 1 phosphate (IP1) accumulation assay (HTRF) in COS-7 cells transfected with CXCR4. It counts as cell-based. The settings on record: 5 min preincubation with peptide (1 or 10 μM final), then CXCL12 10^-12 to 10^-5 M; COS-7/CXCR4; IP1 HTRF. An excerpt:
CXCR4 is a member of the G protein-coupled receptor (GPCR) family[58] and proposed as a target receptor for TFF3 to mediate wound healing.[30],[39] We therefore pharmacologically characterized TFF3(C^57Acm) and TFF3 homodimer at CXCR4. We used a chimeric Gαiq protein to switch the pathway to the Gαq signaling, which leads to the activation of the phospholipase and allows measurement of CXCR4 activation through the production of inositol 1 phosphate (IP1).[61]−[63] We measured IP1 accumulation upon stimulation with TFF3(C^57Acm) and TFF3 homodimer in fibroblast-like COS-7 cells transiently transfected with CXCR4.[58] This is a competitive immunoassay, based on the HTRF technology, where native IP1 produced by cells compete with labeled IP1 (acceptor) for binding to anti-IP1-cryptate (donor). The specific signal (i.e., Förster resonance energy transfer, FRET) is inversely proportional to the concentration of IP1 in the sample. The calculation of the fluorescence ratio eliminates possible medium interferences.[64]
COS-7 cells (fibroblast-like cells from African green monkey) were transiently co-transfected with the CXCR4 C-terminally fused to eYFP in pVitro2 vector and the untagged chimeric G protein GαΔ6qi4myr in pcDNA3.1 plasmid using Metafectene Pro according to manufacturer’s protocol. The cells were cultured in DMEM with higher glucose and supplemented with 10% FCS without any antibiotics at 37 °C and 5% CO2 in 95% humidity. Cisbio IP-One Gq assay kit was used according to previous description with minor modifications to measure activity.[80] Briefly, a standard curve was prepared in HBSS (Hanks’ balanced salt solution) with 20 mM LiCl to determine the linear range of the assay and 10 000 cells/well were cultured overnight in a 384-well flat white plate (Greiner Bio-one GmbH, Frickenhausen, Germany). TFF3 and its homodimer as well as CXCL12 were diluted in HBSS containing 20 mM LiCl. Stimulation was carried out for 1 h in triplicate at 37 °C. Subsequently, 3 μL of IP1-d2 and 3 μL of Ab-cryptate in lysis buffer were added to the wells and incubated on a tumbler for 60 min at 25 °C. Fluorescence was then measured at 620 and 665 nm and the HTRF (homogeneous time-resolved fluorescence) ratio (665/620 nm) was calculated. Data analysis was performed with Prism (version 7, GraphPad, La Jolla). Tested compounds were normalized to CXCL12 wild type, with the highest HTRF ratio set to 0% and the lowest HTRF ratio set to 100% response. […] The final concentration range of 10^–12 to 10^–5 M to CXCL12 and 1 or 10 μM to TFF3(C^57Acm) and TFF3 homodimer was achieved by adding the compounds from a threefold concentrated stock solution.
On the technique in general: In TR-FRET formats the signal depends on donor and acceptor labels being close together.

Data set [8] is described as follows: Stability of disulfide bonds with reduced glutathione (GSH). The class given is physicochemical. The settings on record: peptide 10 μM, 10 equiv reduced glutathione (100 μM), 50 mM sodium phosphate buffer pH 7.2; timepoints 0, 4, 8, 24 h; analytical C3 RP-HPLC. An excerpt: In certain physiological environments, disulfide bonds are prone to scrambling or reductive cleavage, thereby affecting peptide integrity.[67] Thus, we also evaluated the stability of the disulfide bonds of TFF3 in the presence of 10 equivalents of reduced glutathione (GSH) at pH 7 by time-course analytical RP-HPLC. […] While this was expected for the relatively buried disulfide bonds within the trefoil domain (TFF3_10-50), it highlights that also the disulfide bond outside of the trefoil domain is well protected.
Simulated gastric fluid (SGF) was prepared by dissolving 20 mg of NaCl and 8 mg of pepsin in 70 μL of concentrated HCl (32%), and the volume was diluted to 10 mL with Milli-Q water (pH 1.3).[76],[77] […] The samples were analyzed by analytical RP-HPLC (30 μL) and/or LC-MS (20 μL). The amount of peptide remaining was determined by measuring the peak area and expressing it as a % of the peak area at time 0. Peptide half-life (t1/2) was determined from the peptide degradation profiles using an exponential one-phase decay fit in Prism (version 7, GraphPad, La Jolla). […] The stability of the disulfide bonds was assessed through incubation of the peptides (10 μM) with 10 equiv of reduced glutathione (GSH; 100 μM) in sodium phosphate (50 mM) buffer at pH 7.2. […]

“Also recorded” adds a separate entry of the source. Bridge positions count the residues as written; N and C are the ends. Ends that are not written are not given here.

T1 sequence (P61073 whole entry): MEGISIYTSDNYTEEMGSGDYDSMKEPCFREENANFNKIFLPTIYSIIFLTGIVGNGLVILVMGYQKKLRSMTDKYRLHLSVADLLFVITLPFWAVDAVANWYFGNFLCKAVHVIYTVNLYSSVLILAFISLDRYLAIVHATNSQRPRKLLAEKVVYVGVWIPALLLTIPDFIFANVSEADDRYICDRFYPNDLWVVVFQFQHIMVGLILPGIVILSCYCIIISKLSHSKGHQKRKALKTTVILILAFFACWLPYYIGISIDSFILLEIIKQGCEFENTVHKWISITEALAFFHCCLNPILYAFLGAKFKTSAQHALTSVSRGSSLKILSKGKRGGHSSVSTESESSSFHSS

In the case of “Ac-QCAVPAKDRVDCGYPHVTPKECNNRGCCFDSRIPGVPWCFK-NH2 (disulfide 2-28, 12-27, 22-39) [TFF3_10-50]”, the half-life at 50 μM in data set [1] was < 30 min. The “stability in SGF over 24 h (in words)” value in data set [2] was “stable”. Further, in data set [3], the “cleavage sites on incubation with trypsin” value is “cleavages at Lys^16, Arg^18, and Arg^41”.

Turning to “EEYVGLSANQCAVPAKDRVDCGYPHVTPKECNNRGCCFDSRIPGVPWCFKPLQEAECTF”, the cleaved bond entry in data set [4] is “Leu6-Ser7, first_seen”; in data set [5], “Leu6-Ser7, first_seen; also recorded: Glu54-Ala55, first_seen; also recorded: Ala55-Glu56, first_seen”; in data set [6], “Thr58-Phe59”. The fragment found result in data set [4] is given as “S^7ANQCAVPAKDRVDCGYPHVTPKECNNRGCCFDSRIPGVPWCFKPLQEAE^56”.

For “TFF3: 59-residue trefoil factor 3 peptide, three intrachain disulfide bonds, free Cys^57; chemically synthesized by native chemical ligation (EEYVGLSANQCAVPAKDRVDCGYPHVTPKECNNRGCCFDSRIPGVPWCFKPLQEAECTF; disulfide 11-37, 21-36, 31-48)”, in data set [7], the “effect on the EC50 of CXCL12 at CXCR4 (antagonism)” value is reported as “not affected”. Also, the “disulfide bond reduction or scrambling in presence of GSH” value in data set [8] is “No disulfide bond reduction or scrambling was observed”.
